Consider 10 compounds from PubChem BioAssay AID220 (DTP/NCI, 2004).

This assay has as its system CD8F1 mice, subcutaneous mammary adenocarcinoma, T/C%. Description: NCI In Vivo Anticancer Drug Screen. Data for tumor model Mammary Adenocarcinoma CD8F1 (subcutaneous) in CD8F1. The following applies: higher = larger tumour. The essentials:
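Mice carrying transplanted tumors received test compound, and survival or tumor size was recorded. Each value is the treated-group measurement divided by the corresponding measurement in vehicle-dosed controls.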

[1] abbreviates: endpoint: median tumor weight (est.), dose: 50.0 mg/kg/injection, schedule: Q07DX005 (ip), vehicle: saline.
[2] abbreviates: endpoint: median tumor weight (est.), dose: 100.0 mg/kg/injection, schedule: Q07DX005 (ip), vehicle: saline.
[3] abbreviates: endpoint: median tumor weight (est.), dose: 12.5 mg/kg/injection, schedule: Q07DX005 (ip), vehicle: suspension in saline.
Setting [4] is: endpoint: median tumor weight (est.), dose: 25.0 mg/kg/injection, schedule: Q07DX005 (ip), vehicle: suspension in saline.
Where [5] appears, read: endpoint: median tumor weight (est.), dose: 50.0 mg/kg/injection, schedule: Q07DX005 (ip), vehicle: suspension in saline.
Where [6] appears, read: endpoint: median tumor weight (est.), dose: 100.0 mg/kg/injection, schedule: Q07DX005 (ip), vehicle: suspension in saline.

Values joined by “and” are separate entries in the source; they are usually repeats but may differ in a detail not shown here. Equal values may be shown once. Results filed as inconclusive are left out.

As to `COc1cc2cc(c1Cl)N(C)C(=O)C[C@H](OC(=O)[C@H](C)N(C)C(C)=O)[C@]1(C)O[C@H]1[C@H](C)[C@@H]1C[C@@](O)(NC(=O)O1)[C@H](OC)C=C/C=C(\C)C2`, the T/C runs as follows: (endpoint: median tumor weight (est.), dose: 0.03 mg/kg/injection, schedule: Q07DX005 (ip), vehicle: Klucel (hydroxypropylcellulose) (HPC)) 167 % of control; (endpoint: median tumor weight (est.), dose: 0.06 mg/kg/injection, schedule: Q07DX005 (ip), vehicle: Klucel (hydroxypropylcellulose) (HPC)) 151 % of control; (endpoint: median tumor weight (est.), dose: 0.12 mg/kg/injection, schedule: Q07DX005 (ip), vehicle: Klucel (hydroxypropylcellulose) (HPC)) 264 % of control; (endpoint: median tumor weight (est.), dose: 0.25 mg/kg/injection, schedule: Q07DX005 (ip), vehicle: Klucel (hydroxypropylcellulose) (HPC)) 188 % of control; (endpoint: median tumor weight (est.), dose: 62.0 micrograms/kg/injection, schedule: Q07DX005 (ip), vehicle: Klucel (hydroxypropylcellulose) (HPC)) 54 % of control; (endpoint: median tumor weight (est.), dose: 125.0 micrograms/kg/injection, schedule: Q07DX005 (ip), vehicle: Klucel (hydroxypropylcellulose) (HPC)) 77 % of control. The T/C was 110 % of control (endpoint: median tumor weight (est.), dose: 250.0 micrograms/kg/injection, schedule: Q07DX005 (ip), vehicle: Klucel (hydroxypropylcellulose) (HPC)); 93 % of control (endpoint: median tumor weight (est.), dose: 500.0 micrograms/kg/injection, schedule: Q07DX005 (ip), vehicle: Klucel (hydroxypropylcellulose) (HPC)); 67 % of control (endpoint: median tumor weight change, dose: 125.0 micrograms/kg/injection, schedule: Q01DX001 (ip), vehicle: Klucel (hydroxypropylcellulose) (HPC)); 29 % of control and 35 % of control (endpoint: median tumor weight change, dose: 500.0 micrograms/kg/injection, schedule: Q01DX001 (ip), vehicle: Klucel (hydroxypropylcellulose) (HPC)); 3 % of control and 21 % of control (endpoint: median tumor weight change, dose: 1000.0 micrograms/kg/injection, schedule: Q01DX001 (ip), vehicle: Klucel (hydroxypropylcellulose) (HPC)); 12 % of control (endpoint: median tumor weight change, dose: 2000.0 micrograms/kg/injection, schedule: Q01DX001 (ip), vehicle: Klucel (hydroxypropylcellulose) (HPC)).
Turning to `COc1cccc2c1C(=O)c1c(O)c3c(c(O)c1C2=O)C[C@@](O)(/C(C)=N\NC(=O)CO)C[C@@H]3OC1CC(N)C(O)C(C)O1` (stereo not given in full), the T/C is 110 % of control (endpoint: mean tumor weight, dose: 1.0 mg/kg/injection, schedule: Q07DX006 (ip), vehicle: saline); 207 % of control (endpoint: mean tumor weight, dose: 2.0 mg/kg/injection, schedule: Q07DX006 (ip), vehicle: saline); 64 % of control (endpoint: mean tumor weight, dose: 4.0 mg/kg/injection, schedule: Q07DX006 (ip), vehicle: saline); 85 % of control (endpoint: median tumor weight (est.), dose: 1.0 mg/kg/injection, schedule: Q07DX005 (ip), vehicle: saline); 47 % of control (endpoint: median tumor weight (est.), dose: 2.0 mg/kg/injection, schedule: Q07DX005 (ip), vehicle: saline); 104 % of control (endpoint: median tumor weight (est.), dose: 4.0 mg/kg/injection, schedule: Q07DX005 (ip), vehicle: saline).
On to `CC(=O)Nc1ccc(O)c(O)c1`, for which the T/C by setting is: (endpoint: median tumor weight (est.), dose: 25.0 mg/kg/injection, schedule: Q07DX005 (ip), vehicle: saline with Tween-80) 107 % of control; (endpoint: median tumor weight (est.), dose: 50.0 mg/kg/injection, schedule: Q07DX005 (ip), vehicle: saline with Tween-80) 81 % of control; (endpoint: median tumor weight (est.), dose: 100.0 mg/kg/injection, schedule: Q07DX005 (ip), vehicle: saline with Tween-80) 79 % of control; (endpoint: median tumor weight (est.), dose: 200.0 mg/kg/injection, schedule: Q07DX005 (ip), vehicle: saline with Tween-80) 76 % of control; (endpoint: median tumor weight (est.), dose: 400.0 mg/kg/injection, schedule: Q07DX005 (ip), vehicle: saline with Tween-80) 114 % of control; (endpoint: median tumor weight (est.), dose: 800.0 mg/kg/injection, schedule: Q07DX005 (ip), vehicle: saline with Tween-80) 159 % of control.
For `CCCCCCCCCCS(=O)CC(CO)NC(=O)/C=C/c1c(C)[nH]c(=O)[nH]c1=O` (stereo not given), the T/C was 85 % of control (endpoint: median tumor weight (est.), dose: 0.75 mg/kg/injection, schedule: Q07DX005 (ip), vehicle: saline with Tween-80); 100 % of control and 106 % of control (endpoint: median tumor weight (est.), dose: 1.5 mg/kg/injection, schedule: Q07DX005 (ip), vehicle: saline with Tween-80); 124 % of control and 113 % of control (endpoint: median tumor weight (est.), dose: 3.0 mg/kg/injection, schedule: Q07DX005 (ip), vehicle: saline with Tween-80); 76 % of control (endpoint: median tumor weight (est.), dose: 6.0 mg/kg/injection, schedule: Q07DX005 (ip), vehicle: saline with Tween-80); 23 % of control (endpoint: median tumor weight (est.), dose: 12.0 mg/kg/injection, schedule: Q07DX005 (ip), vehicle: saline with Tween-80); 76 % of control (endpoint: median tumor weight (est.), dose: 48.0 mg/kg/injection, schedule: Q07DX005 (ip), vehicle: saline with Tween-80).
Turning to `N=C(N)SCc1c2ccccc2c(CSC(=N)N)c2ccccc12`, the T/C is 105 % of control and 119 % of control under setting [1]; 107 % of control under setting [2]; 25 % of control (endpoint: median tumor weight (est.), dose: 200.0 mg/kg/injection, schedule: Q07DX005 (ip), vehicle: saline); 77 % of control (endpoint: median tumor weight change, dose: 50.0 mg/kg/injection, schedule: Q01DX001 (ip), vehicle: saline + alcohol); 90 % of control (endpoint: median tumor weight change, dose: 50.0 mg/kg/injection, schedule: Q01DX001 (ip), vehicle: suspension in saline); 99 % of control (endpoint: median tumor weight change, dose: 100.0 mg/kg/injection, schedule: Q01DX001 (ip), vehicle: saline + alcohol). The T/C by setting is: (endpoint: median tumor weight change, dose: 100.0 mg/kg/injection, schedule: Q01DX001 (ip), vehicle: suspension in saline) 102 % of control and 111 % of control; (endpoint: median tumor weight change, dose: 200.0 mg/kg/injection, schedule: Q01DX001 (ip), vehicle: saline + alcohol) 58 % of control; (endpoint: median tumor weight change, dose: 200.0 mg/kg/injection, schedule: Q01DX001 (ip), vehicle: suspension in saline) 84 % of control and 86 % of control; (endpoint: median tumor weight change, dose: 400.0 mg/kg/injection, schedule: Q01DX001 (ip), vehicle: saline + alcohol) 31 % of control.
Take `COC1N(C2CC(O)C(CO)O2)C(=O)NC(=O)C1(F)Br` (stereo not given): the T/C (endpoint: median tumor weight (est.), dose: 3.12 mg/kg/injection, schedule: Q07DX005 (ip), vehicle: saline) is 74 % of control; the T/C (endpoint: median tumor weight (est.), dose: 6.25 mg/kg/injection, schedule: Q07DX005 (ip), vehicle: saline) was 54 % of control; the T/C (endpoint: median tumor weight (est.), dose: 6.25 mg/kg/injection, schedule: Q07DX005 (ip), vehicle: suspension in saline) was 67 % of control; the T/C (endpoint: median tumor weight (est.), dose: 12.5 mg/kg/injection, schedule: Q07DX005 (ip), vehicle: saline) was 28 % of control; the T/C under setting [3] is 113 % of control; the T/C (endpoint: median tumor weight (est.), dose: 25.0 mg/kg/injection, schedule: Q07DX005 (ip), vehicle: saline) is 46 % of control. Also, the T/C is, setting by setting: under setting [4], 66 % of control; under setting [1], 28 % of control; under setting [5], 45 % of control; under setting [2], 5 % of control; under setting [6], 45 % of control; (endpoint: median tumor weight (est.), dose: 200.0 mg/kg/injection, schedule: Q07DX005 (ip), vehicle: suspension in saline) 57 % of control.
As to `O=C1C=C[C@H](O)[C@@]2(CO)O[C@@H]12`, the T/C was 65 % of control (endpoint: median tumor weight change, dose: 3.12 mg/kg/injection, schedule: Q01DX001 (ip), vehicle: saline with Tween-80); 61 % of control (endpoint: median tumor weight change, dose: 6.25 mg/kg/injection, schedule: Q01DX001 (ip), vehicle: saline with Tween-80); 90 % of control (endpoint: median tumor weight change, dose: 12.5 mg/kg/injection, schedule: Q01DX001 (ip), vehicle: saline with Tween-80).
Turning to `C[CH2][Sn]([CH2]C)([O]S(C)(=O)=O)[O]S(C)(=O)=O`, the T/C was 88 % of control (endpoint: median tumor weight change, dose: 3.9 mg/kg/injection, schedule: Q01DX001 (ip), vehicle: saline); 60 % of control (endpoint: median tumor weight change, dose: 7.81 mg/kg/injection, schedule: Q01DX001 (ip), vehicle: saline); 103 % of control (endpoint: median tumor weight change, dose: 15.62 mg/kg/injection, schedule: Q01DX001 (ip), vehicle: saline).
In the case of `CCOC(=O)c1c[nH]c2oc(/C=N/N3CC(CN4CCOCC4)OC3=O)cc2c1=O` (stereo not given), the T/C by setting is: under setting [3], 107 % of control; under setting [4], 87 % of control; under setting [5], 97 % of control; under setting [6], 155 % of control; (endpoint: median tumor weight (est.), dose: 400.0 mg/kg/injection, schedule: Q07DX005 (ip), vehicle: suspension in saline) 94 % of control.
For the compound `O=C(C#Cc1ccccc1)c1ccccc1`, the T/C (endpoint: median tumor weight (est.), dose: 0.39 mg/kg/injection, schedule: Q07DX005 (ip), vehicle: saline with Tween-80) was 64 % of control; the T/C (endpoint: median tumor weight (est.), dose: 0.78 mg/kg/injection, schedule: Q07DX005 (ip), vehicle: saline with Tween-80) was 68 % of control; the T/C (endpoint: median tumor weight (est.), dose: 1.56 mg/kg/injection, schedule: Q07DX005 (ip), vehicle: saline with Tween-80) was 68 % of control; the T/C (endpoint: median tumor weight (est.), dose: 3.12 mg/kg/injection, schedule: Q07DX005 (ip), vehicle: Klucel (hydroxypropylcellulose) (HPC)) was 47 % of control; the T/C (endpoint: median tumor weight (est.), dose: 3.12 mg/kg/injection, schedule: Q07DX005 (ip), vehicle: saline with Tween-80) was 53 % of control; the T/C (endpoint: median tumor weight (est.), dose: 6.25 mg/kg/injection, schedule: Q07DX005 (ip), vehicle: saline with Tween-80) was 67 % of control. The T/C (endpoint: median tumor weight (est.), dose: 12.5 mg/kg/injection, schedule: Q07DX005 (ip), vehicle: saline with Tween-80) is 46 % of control.
